According to patent US6900216B2, “Dihydroimidazo[2,1-b]thiazole and dihydro-5h-thiazolo[3,2-A]pyrimidines as antidepressant agents” (Knoll GmbH, priority 2000, dated 2005):
Like-named read-outs stand apart in the source and are kept apart here.

Tests used:
5-HT1A receptors = biological target: T1, 5-HT1A receptors (Rattus norvegicus, UniProt P19327); experiment: 5-HT1A binding: inhibition of [3H]8-OH-DPAT binding to rat hippocampal membranes; details: for inhibition at 1 µM: read-out: 5-HT1A % displacement at 10^−6 M; for Ki: [3H]8-OH-DPAT 1 nM, rat hippocampal membranes, fit to data from three experiments
T1 construct: Hippocampal tissue from the brains of male Sprague-Dawley rats; from tissue; host or cells: rat hippocampal membranes
T1 sequence (P19327 1-422): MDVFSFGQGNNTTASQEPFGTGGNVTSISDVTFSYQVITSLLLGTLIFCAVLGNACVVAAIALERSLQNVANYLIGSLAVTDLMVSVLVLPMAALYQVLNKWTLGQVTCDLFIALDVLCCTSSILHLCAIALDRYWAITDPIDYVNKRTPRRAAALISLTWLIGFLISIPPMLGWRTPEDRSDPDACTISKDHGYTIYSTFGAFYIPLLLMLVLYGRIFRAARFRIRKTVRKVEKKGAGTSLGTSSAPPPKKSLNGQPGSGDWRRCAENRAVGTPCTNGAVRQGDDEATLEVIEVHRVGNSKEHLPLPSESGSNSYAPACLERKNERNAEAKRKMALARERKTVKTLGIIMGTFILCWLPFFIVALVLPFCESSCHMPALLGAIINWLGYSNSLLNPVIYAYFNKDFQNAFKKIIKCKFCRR
Description: Hippocampal tissue from the brains of male Sprague-Dawley rats (Charles River; weight range 150-250 g) was homogenised in ice-cold 50 mM Tris-HCl buffer (pH 7.7 when measured at 25° C., 1:40 w/v) and centrifuged at 40,000 g at 4° C. for 10 minutes. The pellet was rehomogenised in the same buffer, incubated at 37° C. for 10 minutes and centrifuged at 40,000 g at 4° C. for 10 minutes. The final pellet was resuspended in 50 mM Tris-HCl buffer (pH 7.7) containing 4 mM CaCl2, 0.1% L-ascorbic acid and 10 μM pargyline hydrochloride (equivalent to 6.25 mg wet weight of tissue/ml) and used immediately in the binding assay.
Membranes (400 μl; equivalent to 2.5 mg wet weight of tissue/tube) were incubated with 50 μl of [^3H]8-hydroxy-2-(dipropylamino)tetralin ([^3H]8-OH-DPAT) at a single concentration of 1 nM and 50 μl of distilled water (total binding) or 50 μl of test compound (at a single concentration of 10^−6 M or at 10 concentrations ranging from 10^−11-10^−3 M) or 50 μl of 5-HT (10 μM, non-specific binding) at 25° C. for 30 minutes. The incubation was terminated by rapid filtration under vacuum through Skatron 11734 filters using a Skatron Cell Harvester. Filters were washed with ice-cold 50 mM Tris-HCl buffer, pH 7.7 (at 25° C., wash setting 9,9,0). The scored filter paper discs were punched out into vials, scintillation fluid added and radioactivity determined by liquid scintillation counting.
For each of these tests measuring the ability of compounds of Formula I to displace standard ligands from 5-HT1A receptors and 5-hydroxytryptamine (5-HT) and noradrenaline (NA) reuptake sites and muscarinic receptors in vitro, the percentage displacement of specific binding of tritiated ligand by 10^−6 M test compound was calculated in the following way.
Firstly, specific binding of tritiated ligand in the absence (A) and presence (B) of test compound was determined:
In the absence of compound: A(dpm)=Total binding (dpm)−Non-specific binding (dpm) In the presence of compound (10^−6 M): B(dpm)=Binding at 10^−6M (dpm)−Non-specific binding (dpm)
The specific binding of tritiated ligand in the presence (B) of compound was then converted to a percentage of specific binding of tritiated ligand in the absence (A) of compound: % Specific binding at 10^−6 M=B(dpm)/A(dpm)×100
The percentage displacement of specific binding of tritiated ligand by the test compound (10^−6 M) was then obtained by subtraction of the percentage specific binding in the presence of compound from the percentage specific binding in the absence of compound, which is taken as the maximum binding and so equals 100%:
% Displacement at 10^−6 M=100−% Specific binding at 10^−6 M.
In some cases, displacement curves were then produced for compounds which displaced ≧50% of specific binding of the tritiated ligand at 10^−6 M using a range of concentrations of the compound. The Ki was then calculated by simultaneous fitting using equations derived from the Feldman equations by robust non-linear regression to data from three experiments simultaneously (De Lean et al., 1978; Munson and Rodbard, 1980; Feldman, 1992). Munson P J and Rodbard D. Ligand: a versatile computerised approach for characterisation of ligand binding systems. Anal Biochem 1980; 107: 220. Feldman HA. Mathematical theory of complex ligand binding systems at equilibrium: some methods for parameter fitting. Anal Biochem 1992: 48, 317. De Lean A, Munson P J and Rodbard D. Simultaneous analysis of families of sigmoidal curves: application to bioassay, radioligand assay, and physiological dose-response curves. Am J Physiol 1978: 235 (2), E97-E102.
The results obtained in the above tests for 5-HT1A binding and 5-HT and NA uptake and muscarinic binding for the final products of Examples 1-39 hereinafter are given in Table 1 below. Kis are in nM. % Figures are for % displacement at 10^−6 M for a single determination.

inhibition at 1 µM (5-HT1A receptors; 10^−6 M test compound, single determination, [3H]8-OH-DPAT) [%]	Ki (5-HT1A receptors) [nM]	Compound	inhibition at 1 µM (5-HT1A receptors) [%]	melting point [°C]
–	–	Cc1cccc2sc(C3=CSC4=NCCN34)cc12.Cl [Example 14, 3-(4-methylbenzo[b]thiophen-2-yl)-5,6-dihydroimidazo[2,1-b]thiazole hydrochloride]	64	238 to 245
97	–	OCC1=C(c2cc3ccccc3s2)N2CCN=C2S1 [Example 15, [3-(benzo[b]thiophen-2-yl)-5,6-dihydroimidazo[2,1-b]thiazol-2-yl]methanol]	–	138 to 140
–	–	Br.CC1=C(c2cc3c(C)cccc3s2)N2CCN=C2S1 [Example 16, 2-methyl-3-(4-methylbenzo[b]thiophen-2-yl)-5,6-dihydroimidazo[2,1-b]thiazole hydrobromide]	97	201 to 204
–	–	Br.CC1=C(c2cc3c(Cl)cccc3s2)N2CCCN=C2S1 [Example 17, 3-(4-chlorobenzo[b]thiophen-2-yl)-2-methyl-6,7-dihydro-5H-thiazolo[3,2-a]pyrimidine hydrobromide]	82	236 to 238
–	–	Br.CCC1=C(c2cc3c(Cl)cccc3s2)N2CCN=C2S1 [Example 18, 3-(4-chlorobenzo[b]thiophen-2-yl)-2-ethyl-5,6-dihydroimidazo[2,1-b]thiazole hydrobromide]	96	187 to 189
–	134	CSC1=C(c2cc3ccccc3s2)N2CCN=C2S1 [Example 19, 3-(benzo[b]thiophen-2-yl)-2-(methylthio)-5,6-dihydroimidazo[2,1-b]thiazole]	–	95 to 97
–	–	Br.CC1=C(c2cc3cccc(Cl)c3s2)N2CCN=C2S1 [Example 20, 3-(7-chlorobenzo[b]thiophen-2-yl)-2-methyl-5,6-dihydroimidazo[2,1-b]thiazole hydrobromide]	98	294 to 295
–	31	Br.CC1=C(c2ccc3sccc3c2)N2CCN=C2S1 [Example 21, 3-(benzo[b]thiophen-5-yl)-2-methyl-5,6-dihydroimidazo[2,1-b]thiazole hydrobromide]	–	285
–	–	CSC1=C(c2cccc3sccc23)N2CCN=C2S1.Cl [Example 22, 3-(benzo[b]thiophen-4-yl)-2-(methylthio)-5,6-dihydroimidazo[2,1-b]thiazole hydrochloride]	88	95 to 105
–	20	CC1=C(c2cccc3ccsc23)N2CCN=C2S1.Cl [Example 23, 3-(benzo[b]thiophen-7-yl)-2-methyl-5,6-dihydroimidazo[2,1-b]thiazole hydrochloride]	–	210 to 212
–	–	Br.CC1=C(c2cc3c(Cl)c(Cl)ccc3s2)N2CCN=C2S1 [Example 24, 3-(4,5-dichlorobenzo[b]thiophen-2-yl)-2-methyl-5,6-dihydroimidazo[2,1-b]-thiazole hydrobromide]	76	244 to 246
–	–	CCC1=C(c2cccc3sccc23)N2CCN=C2S1.O=C(O)/C=C/C(=O)O [Example 25, 3-(benzo[b]thiophen-4-yl)-2-ethyl-5,6-dihydroimidazo[2,1-b]thiazole fumarate]	92	171 to 173
–	–	Br.COc1cccc2cc(C3=C(C)SC4=NCCN43)sc12 [Example 26, 3-(7-methoxybenzo[b]thiophen-2-yl)-2-methyl-5,6-dihydroimidazo[2,1-b]thiazole hydrobromide]	90	270 to 272
–	38.5	OCC1=C(c2ccc3sccc3c2)N2CCN=C2S1 [Example 28, [3-(benzo[b]thiophen-5-yl)-5,6-dihydroimidazo[2,1-b]-thiazol-2-yl]methanol]	–	149 to 150
–	–	CC1=C(c2cccc3sc(C)cc23)N2CCN=C2S1.Cl [Example 33, 2-methyl-3-(2-methylbenzo[b]thiophen-4-yl)-5,6-dihydroimidazo[2,1-b]thiazole hydrochloride]	99	271
–	45	Br.c1cc(C2=C(C3CC3)SC3=NCCN32)c2ccsc2c1 [Example 34, 3-(benzo[b]thiophen-4-yl)-2-cyclopropyl-5,6-dihydroimidazo[2,1-b]thiazole hydrobromide]	–	213 to 214
–	40	Br.C=CCC1=C(c2cccc3sccc23)N2CCN=C2S1 [Example 36, 2-allyl-3-(benzo[b]thiophen-4-yl)-5,6-dihydroimidazo[2,1-b]thiazole hydrobromide]	–	188 to 190
–	2.1	Br.CC1=C(c2ccc3ccsc3c2)N2CCN=C2S1 [Example 37, 3-(benzo[b]thiophen-6-yl)-2-methyl-5,6-dihydroimidazo[2,1-b]thiazole hydrobromide]	–	252 to 254
–	29	Br.CC1=C(c2ccc(F)c3sccc23)N2CCN=C2S1 [Example 38, 3-(7-fluorobenzo[b]thiophen-4-yl)-2-methyl-5,6-dihydroimidazo[2,1-b]thiazole hydrobromide]	–	265 to 267
–	–	C=CC1=C(c2cccc3sccc23)N2CCN=C2S1.Cl [Example 39, 3-(benzo[b]thiophen-4-yl)-2-vinyl-5,6-dihydroimidazo[2,1-b]thiazole hydrochloride]	85	195 to 197

Compound	inhibition at 1 µM (5-HT1A receptors; 10^−6 M test compound, single determination, [3H]8-OH-DPAT) [%]	Ki (5-HT1A receptors) [nM]	inhibition at 1 µM (5-HT1A receptors) [%]	melting point [°C]
CCC1=C(c2ccc3sccc3c2)N2CCN=C2S1.O=C(O)/C=C/C(=O)O [Example 31, 3-(benzo[b]thiophen-5-yl)-2-ethyl-5,6-dihydroimidazo[2,1-b]thiazole fumarate]	–	102	–	145 to 150
CSC1=C(c2cccc3sccc23)N2CCN=C2S1.O=C(O)/C=C/C(=O)O [Example 32, 3-(benzo[b]thiophen-4-yl)-2-(methylthio)-5,6-dihydroimidazo[2,1-b]thiazole fumarate]	–	93	–	185 to 187
CC(C)C1=C(c2cccc3sccc23)N2CCN=C2S1.O=C(O)/C=C/C(=O)O [Example 35, 3-(benzo[b]thiophen-4-yl)-2-(1-methylethyl)-5,6-dihydroimidazo[2,1-b]thiazole fumarate]	–	151	–	175 to 178
